The values that follow are results of earlier work, collected in patent publication US20090311317A1, “MODIFIED RELEASE TOLTERODINE FORMULATIONS” (Capricorn Pharma Inc., priority 2008, published 2009).

The subject of series [1] is muscarinic receptors of the salivary gland. The note with it: versus oxybutynin.
For a further series, the system named is bladder. The following applies: versus oxybutynin.

Structures can show the parent of a compound that is named as a salt.

In the case of `Cc1ccc(O)c([C@@H](CCN(C(C)C)C(C)C)c2ccccc2)c1` [tolterodine, (+)-N,N-diisopropyl-3-(2-hydroxy-5-methylphenyl)-3-phenylpropylamine L-hydrogen tartrate], the “affinity for muscarinic receptors of the salivary gland relative to oxybutynin” value in series [1] is on record as “eight times lower”. Further, in the series with bladder, the “potency in the bladder relative to oxybutynin” value is reported as “equipotent with oxybutynin”.
